Values quoted from earlier work in US20150164858A1, “COMBINATION COMPRISING PARTHENOLIDE FOR USE IN THE TREATMENT OF ALZHEIMER'S DISEASE AND OTHER NEURODEGENERATIVE DISORDERS” (King Abdullah University of Science and Technology, priority 2012, published 2015).

Key:
[1] = tested on: patients with AD; details: moderate to severe AD
[2] = biological target: TLR4 (Homo sapiens, UniProt O00206)
[3] = tested on: HEK293 cells stably expressing TLR4/MD-2/CD14

Chain of TLR4 (O00206 24-839): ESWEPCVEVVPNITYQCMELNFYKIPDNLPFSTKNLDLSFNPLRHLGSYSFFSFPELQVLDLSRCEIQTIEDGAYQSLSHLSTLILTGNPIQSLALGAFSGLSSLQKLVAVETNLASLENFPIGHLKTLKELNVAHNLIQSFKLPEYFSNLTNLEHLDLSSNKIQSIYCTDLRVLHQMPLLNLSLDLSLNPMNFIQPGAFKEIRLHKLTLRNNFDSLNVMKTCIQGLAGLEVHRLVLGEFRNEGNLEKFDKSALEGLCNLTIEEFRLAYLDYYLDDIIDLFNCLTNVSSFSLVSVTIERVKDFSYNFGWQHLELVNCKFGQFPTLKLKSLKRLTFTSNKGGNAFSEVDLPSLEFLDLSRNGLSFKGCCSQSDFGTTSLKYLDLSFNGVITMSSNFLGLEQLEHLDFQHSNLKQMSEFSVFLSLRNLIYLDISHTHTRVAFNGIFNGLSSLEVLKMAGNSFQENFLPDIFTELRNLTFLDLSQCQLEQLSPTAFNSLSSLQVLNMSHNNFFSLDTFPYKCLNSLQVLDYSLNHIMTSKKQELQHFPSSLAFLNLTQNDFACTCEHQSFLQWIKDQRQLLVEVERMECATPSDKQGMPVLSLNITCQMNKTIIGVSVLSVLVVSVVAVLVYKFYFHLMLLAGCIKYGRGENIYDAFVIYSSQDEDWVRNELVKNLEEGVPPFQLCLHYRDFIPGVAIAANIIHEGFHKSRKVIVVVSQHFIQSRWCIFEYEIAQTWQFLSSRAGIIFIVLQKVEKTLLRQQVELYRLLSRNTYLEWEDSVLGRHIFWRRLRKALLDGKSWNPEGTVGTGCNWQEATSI

Row | TLR4 signaling [2] | Structure (SMILES) | cognitive function [1] | binding site in TLR4 ([2]; intracellular domain of TLR4) | TIRAP-mediated activation of NF-κB [3] | TRAM-mediated activation of NF-κB and interferon-sensitive response element [3]
1 |  | CC12CC3CC(C)(C1)CC(N)(C3)C2 [Memantine] | improve cognitive function |  |  | 
2 | suppress TLR4 signaling | CCOC(=O)C1=CCCC[C@H]1S(=O)(=O)Nc1ccc(F)cc1Cl [Resatorvid] |  | binding directly to a specific amino acid Cys747 | inhibit | inhibit
